Reference: patent publication US20230033195A1, “METHODS AND COMPOSITIONS FOR IMPROVING COGNITIVE FUNCTION” (THE JOHNS HOPKINS UNIVERSITY, priority 2011, published 2023)

Experiments:
[1] = aged rats, chronic subcutaneous 100 mg/kg/day; cited from earlier work
[2] = tested on: memory-impaired aged rats; conditions: cited from earlier work
[3] = tested on: aged-impaired (AI) rats; experiment: eight-arm Radial Arm Maze (RAM) task with one-hour delay, spatial memory retention; format: in vivo, rat

Row | SMILES | blood total valproate level [1] [µg/ml plasma] | performance in a memory test ([2]; chronic subcutaneous 100 mg/kg/day) | effective in reducing the number of errors, on its own ([3]; valproate subcutaneous 25 mg/kg) | effective in reducing the number of errors, on its own ([3]; valproate subcutaneous 50 mg/kg) | effective in reducing the number of errors, on its own ([3]; valproate subcutaneous 100 mg/kg) | treatment of cognitive impairment ([2]; chronic subcutaneous 50 mg/kg/day)
1 | CCCC(CCC)C(=O)[O-].[Na+] [sodium valproate] | 10 | significantly improved |  |  |  | 
2 | CCCC(CCC)C(=O)O [valproate, 2-propylpentanoate] |  |  | not | not | effective | not effective
